Experimental findings from US20100035871A1, “BENZOXAZINE DERIVATIVES AND USES THEREOF” (priority 2006, published 2010) are described below.

The structures appear in SMILES notation.

The target of the first test is T1, human 5-HT2C receptor (Homo sapiens, UniProt P28335).
T1 construct: expressed in transfected cells; host or cells: CHO (Chinese Hamster Ovary) cells; membrane preparation
T1 sequence (P28335 33-458): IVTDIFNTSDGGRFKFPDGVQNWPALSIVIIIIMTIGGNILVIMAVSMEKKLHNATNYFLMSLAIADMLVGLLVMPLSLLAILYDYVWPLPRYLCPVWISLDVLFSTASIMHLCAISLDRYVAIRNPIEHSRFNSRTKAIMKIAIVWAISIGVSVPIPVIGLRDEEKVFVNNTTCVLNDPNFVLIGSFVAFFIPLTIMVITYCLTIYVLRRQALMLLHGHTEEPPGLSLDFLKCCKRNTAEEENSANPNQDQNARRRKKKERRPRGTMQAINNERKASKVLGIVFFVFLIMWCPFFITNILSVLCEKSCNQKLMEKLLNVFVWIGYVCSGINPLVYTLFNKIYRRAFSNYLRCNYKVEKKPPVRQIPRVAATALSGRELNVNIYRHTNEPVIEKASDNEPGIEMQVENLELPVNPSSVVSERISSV
As to the kind of experiment: 5-HT2C receptor binding, [125I]DOI displacement, membranes of transfected CHO cells. To be noted: @1 μM.
Regarding `COc1ccc(-c2cccc3c2O[C@H](CN)CN3)cc1` [Example 45, 1-[(2R)-8-(4-methoxyphenyl)-3,4-dihydro-2H-1,4-benzoxazin-2-yl]methanamine], the “5-HT2C Binding, % @1 μM” value stood at 18% @1 μM.

Staying with this test, now noted: read-out: 5-HT2C Binding Ki avg.
In the case of `CN1CC(CN)Oc2c(-c3ccccc3)cccc21` (racemic) [Example 9, 1-(4-Methyl-8-phenyl-3,4-dihydro-2H-1,4-benzoxazin-2-yl)methanamine], the Ki came out at 161 nM.
On the same count and under the same terms, as for `CCN1CC(CN)Oc2c(-c3ccccc3Cl)cccc21` (racemic) [Example 19, 1-[8-(2-Chlorophenyl)-4-ethyl-3,4-dihydro-2H-1,4-benzoxazin-2-yl]methanamine], the figure is 80.5 nM.
With `CCCN1CC(CN)Oc2c(-c3ccccc3Cl)cccc21` (racemic) [Example 21, 1-[8-(2-Chlorophenyl)-4-propyl-3,4-dihydro-2H-1,4-benzoxazin-2-yl]methanamine], the Ki was 64 nM.
Regarding `NCC1COc2cc(Cl)cc(-c3ccccc3C(F)(F)F)c2N1` (racemic) [Example 25, 1-{7-Chloro-5-[2-(trifluoromethyl)phenyl]-3,4-dihydro-2H-1,4-benzoxazin-3-yl}methanamine], the Ki is 68.2 nM.
Same read-out and setting: the value for `COc1ccc(-c2cc(Cl)cc3c2NC(CN)CO3)cc1` (racemic) [Example 26, 1-[7-Chloro-5-(4-methoxyphenyl)-3,4-dihydro-2H-1,4-benzoxazin-3-yl]methanamine] was 158 nM.
For the compound `COc1ccc(-c2cc(Cl)cc3c2N(C)C(CN)CO3)c(C)c1` (racemic) [Example 28, 1-[7-chloro-5-(4-methoxy-2-methylphenyl)-4-methyl-3,4-dihydro-2H-1,4-benzoxazin-3-yl]methanamine], the Ki came out at 1120 nM.
Regarding `NCC1COc2cc(Cl)cc(-c3ccccc3)c2N1` (racemic) [Example 29, 1-(7-chloro-5-phenyl-3,4-dihydro-2H-1,4-benzoxazin-3-yl)methanamine], the Ki was determined as 421 nM.
On the same count and under the same terms, the value for `Cc1ccccc1-c1cc(Cl)cc2c1NC(CN)CO2` (racemic) [Example 30, 1-[7-chloro-5-(2-methylphenyl)-3,4-dihydro-2H-1,4-benzoxazin-3-yl]methanamine] was 155 nM; that for `NCC1COc2cc(Cl)cc(-c3ccccc3F)c2N1` (racemic) [Example 33, 1-[7-chloro-5-(2-fluorophenyl)-3,4-dihydro-2H-1,4-benzoxazin-3-yl]methanamine] was 152 nM.
Take `COc1ccccc1-c1cc(Cl)cc2c1NC(CN)CO2` (racemic) [Example 34, 1-[7-chloro-5-(2-methoxyphenyl)-3,4-dihydro-2H-1,4-benzoxazin-3-yl]methanamine]: the Ki is 749 nM.
Turning to `Cc1cc(Cl)ccc1-c1cc(Cl)cc2c1NC(CN)CO2` (racemic) [Example 35, 1-[7-chloro-5-(4-chloro-2-methylphenyl)-3,4-dihydro-2H-1,4-benzoxazin-3-yl]methanamine], the Ki was determined as 173 nM.
For the compound `NCC1COc2cc(Cl)cc(-c3ccc(Cl)cc3C(F)(F)F)c2N1` (racemic) [Example 37, 1-{7-chloro-5-[4-chloro-2-(trifluoromethyl)phenyl]-3,4-dihydro-2H-1,4-benzoxazin-3-yl}methanamine], the Ki worked out at 166 nM.
In the case of `NCC1COc2cc(Cl)cc(-c3ccc(C(F)(F)F)cc3C(F)(F)F)c2N1` (racemic) [Example 38, 1-{5-[2,4-bis(trifluoromethyl)phenyl]-7-chloro-3,4-dihydro-2H-1,4-benzoxazin-3-yl}methanamine], the Ki was determined as 287 nM.
In the case of `COc1ccc(-c2cc(F)cc3c2NC(CN)CO3)c(C)c1` (racemic) [Example 56, 1-[7-fluoro-5-(4-methoxy-2-methylphenyl)-3,4-dihydro-2H-1,4-benzoxazin-3-yl]methanamine], the inhibitory constant (Ki) was 160 nM.
`NCC1COc2cc(F)cc(-c3ccccc3Cl)c2N1` (racemic) [Example 57, 1-[5-(2-chlorophenyl)-7-fluoro-3,4-dihydro-2H-1,4-benzoxazin-3-yl]methanamine]: the Ki was 155 nM.
Take `Cc1ccccc1-c1cc(F)cc2c1NC(CN)CO2` (racemic) [Example 58, 1-[7-fluoro-5-(2-methylphenyl)-3,4-dihydro-2H-1,4-benzoxazin-3-yl]methanamine]: the inhibition constant Ki amounted to 155 nM.
Consider `Cc1ccc(-c2cc(F)cc3c2NC(CN)CO3)c(C(F)(F)F)c1` (racemic) [Example 60, 1-{7-fluoro-5-[4-methyl-2-(trifluoromethyl)phenyl]-3,4-dihydro-2H-1,4-benzoxazin-3-yl}methanamine], for which the inhibition constant (Ki) worked out at 65.1 nM.
Regarding `COc1ccc(-c2cc(F)cc3c2NC(CN)CO3)cc1` (racemic) [Example 61, 1-[7-fluoro-5-(4-methoxyphenyl)-3,4-dihydro-2H-1,4-benzoxazin-3-yl]methanamine], the inhibitory constant (Ki) came out at 380 nM.
As to `NCC1COc2cc(F)cc(-c3ccccc3F)c2N1` (racemic) [Example 62, 1-[7-fluoro-5-(2-fluorophenyl)-3,4-dihydro-2H-1,4-benzoxazin-3-yl]methanamine], the Ki is 794 nM.
Consider `Cc1cc(Cl)ccc1-c1cc(F)cc2c1NC(CN)CO2` (racemic) [Example 63, 1-[5-(4-chloro-2-methylphenyl)-7-fluoro-3,4-dihydro-2H-1,4-benzoxazin-3-yl]methanamine], for which the inhibition constant Ki was 227 nM.
As for `COc1ccccc1-c1cc(F)cc2c1NC(CN)CO2` (racemic) [Example 64, 1-[7-fluoro-5-(2-methoxyphenyl)-3,4-dihydro-2H-1,4-benzoxazin-3-yl]methanamine], the Ki was 291 nM.
Regarding `NCC1COc2cc(F)cc(-c3cccc(Cl)c3)c2N1` (racemic) [Example 65, 1-[5-(3-chlorophenyl)-7-fluoro-3,4-dihydro-2H-1,4-benzoxazin-3-yl]methanamine], the Ki stood at 497 nM.
Same read-out and setting: as for `CN1CC(CN)Oc2c(-c3cccc(Cl)c3)cccc21` (racemic) [Example 66, 1-[8-(3-chlorophenyl)-4-methyl-3,4-dihydro-2H-1,4-benzoxazin-2-yl]methanamine], the figure is 258 nM; as for `Cc1cc(Cl)ccc1-c1cccc2c1O[C@H](CN)CN2` [Example 42, 1-[(2R)-8-(4-chloro-2-methylphenyl)-3,4-dihydro-2H-1,4-benzoxazin-2-yl]methanamine], 529 nM.
Consider `NC[C@@H]1CNc2cccc(-c3ccccc3F)c2O1` [Example 43, 1-[(2R)-8-(2-fluorophenyl)-3,4-dihydro-2H-1,4-benzoxazin-2-yl]methanamine], for which the inhibition constant Ki is 96.7 nM.
As for `COc1ccc(-c2cccc3c2O[C@H](CN)CN3)c(C)c1` [Example 44, 1-[(2R)-8-(4-methoxy-2-methylphenyl)-3,4-dihydro-2H-1,4-benzoxazin-2-yl]methanamine], the Ki was determined as 143 nM.
Regarding `COc1ccc(-c2cccc3c2O[C@H](CN)CN3)c(Cl)c1` [Example 46, 1-[(2R)-8-(2-chloro-4-methoxyphenyl)-3,4-dihydro-2H-1,4-benzoxazin-2-yl]methanamine], the Ki worked out at 131 nM.
The same measure, in the same setting: the value for `Cc1cc(Cl)ccc1-c1cccc2c1O[C@@H](CN)CN2` [Example 48, 1-[(2S)-8-(4-chloro-2-methylphenyl)-3,4-dihydro-2H-1,4-benzoxazin-2-yl]methanamine] was 99.3 nM.
With `NC[C@H]1CNc2cccc(-c3ccccc3F)c2O1` [Example 49, 1-[(2S)-8-(2-fluorophenyl)-3,4-dihydro-2H-1,4-benzoxazin-2-yl]methanamine], the inhibitory constant (Ki) stood at 143 nM.
